This is an account of results in US7737309B2, “Clathrate compound, method for controlling concentration of aqueous agricultural chemical active ingredient solution, and agricultural chemical formulation” (Nippon Soda Co., Ltd., priority 2004, dated 2010).

The conditions of series [1]: cited from earlier work.
The nature of series [2]: Measurement of saturated solubility. The class given is physicochemical. The settings on record: for saturated solubility: after standing at 25° C. for 192 hours; for Concentration of acetamiprid: distilled water at 25° C. The method, then:
After weighing a fixed amount of each of the Clathrate compounds 1 to 4 obtained in Examples 1 to 4 and an acetamiprid as a control in a measuring flask, distilled water at 25° C. was added to obtain an equal volume. After stoppering and up-and-down shaking for 5 times, the measuring flask was allowed to stand in an incubator at 25° C. After up-and-down shaking for 5 times followed by sampling with the passage of time, water at 25° C. was added to obtain an equal volume again, and sampling was carried out up to 192 hours. The concentration of acetamiprid in the sampled solution was measured by HPLC and then the saturated solubility was calculated.

In series [3] the test system is striped flea beetle. Nature of the series: Test as a seed treatment agent used in combination with a synthetic pyrethroid agent (rapeseeds). The class given is in vivo. The following applies: Treatment amount 500 g/100 kg of seeds. From the text: Immediately after that, the vinyl bag was closed, and the rapeseeds were coated with the chemical by vigorously shaking for 30 seconds. These seeds were spread over a tray and then air-dried at room temperature overnight to obtain rapeseeds coated with 500 g of acetamiprid per 100 kg of seeds.
Immediately after that, the vinyl bag was closed, and the rapeseeds were coated with the chemical by vigorously shaking for 30 seconds. These seeds were spread over a tray and then air-dried at room temperature overnight to obtain rapeseeds coated with 500 g of bifenthrin and 500 g of acetamiprid per 100 kg of seeds.
The obtained seeds were seeded in a No. 2 pot containing alluvial soil and then cultivated in a greenhouse. […] 2 days after standing, the number of incidences of insect damage due to imagines of striped flea beetle of 3 plants in each experimental plot was counted.

The structures appear in SMILES notation. Where a name gives a salt, the structure may show the parent alone. Read-outs that look alike come from different tables or passages of the source.

Consider `CNC(=O)ON=C(C)SC` [methomyl, S-methyl-N-(methylcarbamoyloxy)thioacetimidate], for which, in series [1] (temperature not given), the aqueous solubility is given as 58000 ppm.
As to `COP(=O)(NC(C)=O)SC` (centres unmarked) [acephate, O,S-dimethyl-N-acetylphosphoroamide thioate], in series [1] (temperature not given), the aqueous solubility result was “about 650000 ppm”.
The compound `CC(=NC#N)N(C)Cc1ccc(Cl)nc1.CCO.Oc1ccc(C(c2ccc(O)cc2)C(c2ccc(O)cc2)c2ccc(O)cc2)cc1` [Clathrate compound 3] had a saturated solubility in series [2] of 230 ppm. Besides, the Concentration of acetamiprid turned out to be 156 ppm in series [2] (1 hour); 156 ppm in series [2] (3 hours); 163 ppm in series [2] (24 hours); 179 ppm in series [2] (48 hours); 200 ppm in series [2] (72 hours); 230 ppm in series [2] (192 hours).
As for `CC(=NC#N)N(C)Cc1ccc(Cl)nc1.CO.Oc1ccc(C(c2ccc(O)cc2)C(c2ccc(O)cc2)c2ccc(O)cc2)cc1` [Clathrate compound 2], the saturated solubility in series [2] came out at 238 ppm. The Concentration of acetamiprid in series [2] (1 hour) was determined as 72 ppm; in series [2] (3 hours) it was 79 ppm; in series [2] (24 hours), 161 ppm; in series [2] (48 hours), 200 ppm; in series [2] (72 hours), 217 ppm; in series [2] (192 hours), 238 ppm.
In the case of `ClC=CCCl` [D-D, 1,3-dichloropropene], in series [1] (temperature not given), the aqueous solubility is reported as 2000 ppm.
Consider `CC(=NC#N)N(C)Cc1ccc(Cl)nc1.CC(=NC#N)N(C)Cc1ccc(Cl)nc1.Oc1ccc(C(c2ccc(O)cc2)C(c2ccc(O)cc2)c2ccc(O)cc2)cc1` [Clathrate compound 1], for which, in series [2], the saturated solubility was found to be 232 ppm. The Concentration of acetamiprid in series [2] (1 hour) is recorded as 121 ppm; in series [2] (3 hours), 134 ppm; in series [2] (24 hours), 193 ppm; in series [2] (48 hours), 210 ppm; in series [2] (72 hours), 221 ppm; in series [2] (192 hours), 232 ppm.
Turning to `CCSCc1ccccc1OC(=O)NC` [ethiofencarb, 2-ethylthiomethylphenylmethylcarbamate], the aqueous solubility in series [1] (20° C.) is given as 1800 ppm.
With `CN1COCN(Cc2cnc(Cl)s2)/C1=N\[N+](=O)[O-]` [thiamethoxam], the aqueous solubility in series [1] (25° C.) is on record as 4100 ppm.
In the case of `Cc1c(COC(=O)[C@@H]2[C@H](/C=C(\Cl)C(F)(F)F)C2(C)C)cccc1-c1ccccc1` (racemic) [Bifenthrin], in series [3], the “Insecticidal ratio % after 15 days” value came to 75.4% and the “Number of incidences of insect damage/3 plants after 15 days” value is on record as 98.
`C/C(=N\C#N)N(C)Cc1ccc(Cl)nc1` [Acetamiprid, (E)-N1-[(6-chloro-3-pyridyl)methyl]-N2-cyano-N1-methylacetamidine, reference compound]: in series [1] (25° C.), the aqueous solubility was 4200 ppm. This compound had a saturated solubility in series [2] of 3807 ppm. Also, the Concentration of acetamiprid is recorded as 2,822 ppm in series [2] (1 hour); 3,273 ppm in series [2] (3 hours); 3,734 ppm in series [2] (24 hours); 3,776 ppm in series [2] (48 hours); 3,752 ppm in series [2] (72 hours); 3,807 ppm in series [2] (192 hours).
Turning to `CCN(Cc1ccc(Cl)nc1)/C(=C/[N+](=O)[O-])NC` [nitenpyram, (E)-N-(6-chloro-3-pyridylmethyl)-N-ethyl-N′-methyl-2-nitrovinylidenediamine], the aqueous solubility entry in series [1] (temperature not given) is “about 2000 ppm”.
As to `CNC(=O)Oc1cccc2c1OC(C)(C)O2` [bendiocarb, 2,2-dimethyl-1,3-benzodioxol-4-yl-methylcarbamate.hydrochloride], the aqueous solubility in series [1] (25° C.) is given as 26000 ppm.
